# In PMC7859945 (ACS Omega, 2021):
# Structures can show the parent of a compound that is named as a salt.
# Key:
# [1] = test system: various breast cancer cells; settings: various breast cancer cells in vitro; cited from earlier work
# [2] = test system: MYCN-2 and SK-N-Be2c neuroblastoma cells; experiment: In vitro cytotoxicity, SRB assay, statements spanning both neuroblastoma lines; format: cell-based, human; settings: MYCN-2 and SK-N-Be2c cells
# [3] = cited from earlier work
# [4] = Kinetic solubility study of metformin salts in lipid excipients; settings: for solubility in lipid vehicles: Miglyol 812N and Capryol 90 (text statement for both); for solubility (mg/g) of lipid excipient: medium-chain triglyceride (Miglyol 812N), kinetic solubility, visual inspection
# MYCN-2 cells = experiment: In vitro cytotoxicity, SRB assay, MYCN-2 cells; format: cell-based; settings: Homo sapiens, read-out: IC50, cytotoxicity (MYCN)
# SK-N-Be2c cells = experiment: In vitro cytotoxicity, SRB assay, SK-N-Be2c cells; format: cell-based; settings: Homo sapiens, SK-N-BE(2)-C, read-out: IC50, cytotoxicity (Be2c)
# cancer cells = settings: read-out: IC50, anticancer activity; cited from earlier work
# [5] = test system: triple-negative breast cancer; settings: mouse model of triple-negative breast cancer, 250 mg/kg; cited from earlier work
# Solubility in water = format: physicochemical; settings: data not shown
smiles,measurement,setting,value
CN(C)C(=N)NC(=N)N.NCCCC(=O)O [metformin gamma-aminobutyric acid salt],improvement of the potency of metformin,[1],2- to 10 fold
"CCCCC(CC)COC(=O)CC(C(=O)OCC(CC)CCCC)S(=O)(=O)O.CN(C)C(=N)N=C(N)N (stereo not drawn) [metformin docusate, Metformin Docusate]",improvement in anticancer potency (lower IC50) compared to metformin hydrochloride,[2],700- to 4300 fold
same,solubility in medium-chain triglycerides and propylene glycol fatty acid esters,[3],> 75 mg/g
same,solubility in lipid vehicles,[4],> 200 mg/g
same,solubility (mg/g) of lipid excipient,[4],>200 mg/g
"CN(C)C(=N)N=C(N)N [metformin hydrochloride, Metformin hydrochloride]",IC50,MYCN-2 cells,> 100 mM
same,IC50,SK-N-Be2c cells,> 100 mM
same,IC50,cancer cells,> 1 mM
CCCC(=O)O.CN(C)C(=N)N=C(N)N [metformin butyrate],improvement of the potency of metformin,[1],2- to 10 fold
same,anticancer activity versus metformin,[5],significantly higher anticancer activity than metformin
CN(C)C(=N)NC(=N)N.NCC1(CC(=O)O)CCCCC1 [metformin gabapentin salt],improvement of the potency of metformin,[1],2- to 10 fold
CC(C)C[C@H](CN)CC(=O)O.CN(C)C(=N)NC(=N)N [metformin pregabalin salt],improvement of the potency of metformin,[1],2- to 10 fold
"CN(C)C(=N)NC(=N)N.C[C@H](CCC(=O)O)[C@H]1CC[C@H]2[C@@H]3[C@H](O)C[C@@H]4C[C@H](O)CC[C@]4(C)[C@H]3C[C@H](O)[C@]12C [metformin cholate, Metformin Cholate]",water solubility,Solubility in water,> 1 mg/mL
same,solubility in lipid vehicles,[4],< 5 mg/g
same,solubility (mg/g) of lipid excipient,[4],<5 mg/g
